The record followed here is patent US20060134097A1, “Process for production of aqueous colloid of graphite silica particles emitting far-infrared rays” (priority 2004, published 2006).

Each structure is given as a SMILES string.

Assay [1] relates to Tyrosinase derived from mushroom. Put plainly: tyrosinase activity inhibition. The assay is classed as biochemical. Conditions: control agents. The method, then:
The above aqueous colloid (conc) of the present invention as a basic material, and ascorbic acid and hydroquinone as control agents were used. Tyrosinase used that derived from mushroom (from Sigma Co., Ltd.: 2,500 U/mg). Specifically, for testing an inhibiting effect against tyrosinase activity, 4 kinds of solutions were prepared. (1) a tyrosine solution (0.5 mg/ml); 0.5 ml loading, (2) a 1/15 M phosphate buffer (pH 6.8); 2.0 ml loading, (3) a tyrosine solution (6.0 mg/100 ml); 0.5 ml loading, and (4) a test solution: the nanocolloid particle and/or the aqueous colloid of the present invention, ascorbic acid, or hydroquinone (0.005, 0.01, 0.05, 0.1, 0.5 mg) dissolved in buffer; 2.0 ml loading. The solutions of (1) to (4) were mixed to incubate at 37° C. for one hour, followed by the measurement of absorbance (At) at 475 nm. In addition, the absorbance obtained by adding the phosphate buffer (2 ml) in place of each test solution to carry out the same operation (Ab) was used as control to determine an inhibition rate. The inhibition rate was calculated from the resultant Ab and At values using the formula: inhibition rate=(Ab−At)/Ab×100.

The test system of assay [2] is writhing reaction induced by acetic acid in mice. The assay is described as follows: acetic acid-induced writhing reaction. The format is in vivo. Conditions: count over 10 minutes from 10 minutes after 0.7% acetic acid i.p.; s.c. 30 minutes before: aspirin 300 mg/kg, colloid 0.1 ml/10 g. The text has this:
Then, an analgesic effect of the aqueous colloid of the present invention in mice was studied using a writhing reaction induced by acetic acid. In the observation of the behavior of twisting in response e.g. to a pain due to acetic acid irritation in the peritoneal cavity (writhing), when the administration of an agent suppresses the writhing reaction, the agent can be said to have depressed pseudo affective response, assessing it as having an anti-nociceptive effect. 1) ddy strain male mice (7-week old; 27 to 38 g; 6 mice per group); 2) drug solution: aspirin in 0.1 M Tris-Hydrochloride buffer as a solvent (pH 7.8); […] 4) the aqueous colloid of the present invention: 100 ml of the nanocolloid of the present invention to which 0.9 g of sodium chloride was added to make an isotonicsolution. 1) dividing mice into 3 groups to subcutaneously administer, to an aspirin (300 mg/kg) treatment group, the aspirin solution, the Tris-Hydrochloride buffer to a control group, and the aqueous nanocolloid (0.1 ml/10 g) to the remaining group; […] 3) starting to count the frequency of writhing 10 minutes after the administration of the acetic acid and recording a frequency of writhing during a period of 10 minutes. (See FIG. 10)
(Writhing tests count abdominal constrictions after an irritant is injected.)

Take `O=C1O[C@H]([C@@H](O)CO)C(O)=C1O` [ascorbic acid]: the tyrosinase activity result in assay [1] is recorded as “inhibited the tyrosinase activity”.
As for `CC(=O)Oc1ccccc1C(=O)O` [aspirin], the frequency of writhing in assay [2] turned out to be 10.5±1.2.
For `Oc1ccc(O)cc1` [hydroquinone], in assay [1], the tyrosinase activity result is listed as “inhibited the tyrosinase activity”.
